Among the data in patent US20070197590A1, “SUBSTITUTED DIPIPERIDINE CCR2 ANTAGONISTS” (priority 2006, published 2007) are IC50 values, retold here.

The structures appear in SMILES notation.

For one experiment, the target named is T1, CCR2 (Homo sapiens, UniProt P41597).
T1 construct: host or cells: THP-1 cells
T1 sequence (P41597 1-360 isoform P41597-2): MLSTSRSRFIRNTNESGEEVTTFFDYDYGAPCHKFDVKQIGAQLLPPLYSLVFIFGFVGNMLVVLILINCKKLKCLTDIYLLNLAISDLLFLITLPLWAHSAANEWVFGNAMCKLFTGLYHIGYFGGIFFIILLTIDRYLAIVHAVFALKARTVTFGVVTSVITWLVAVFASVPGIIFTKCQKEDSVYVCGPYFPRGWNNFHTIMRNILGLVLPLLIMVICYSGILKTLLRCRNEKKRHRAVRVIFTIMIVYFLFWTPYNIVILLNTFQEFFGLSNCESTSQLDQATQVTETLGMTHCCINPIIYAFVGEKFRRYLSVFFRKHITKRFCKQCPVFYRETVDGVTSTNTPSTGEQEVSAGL
The experiment is described as follows: MCP-1 Receptor Binding Assay in THP-1 Cells. As to conditions: THP-1 cells, 0.5 nM 125I labeled MCP-1, 2 hours at 30° C.; read-out: Inhibition of MCP-1 Binding IC50. The essentials: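 Whole THP-1 cells incubated 2 h at 30° C with 0.5 nM 125I-MCP-1 and varying compound concentrations; bound radioactivity harvested on filters and counted by scintillation. Nonspecific binding with 1 μM cold MCP-1; IC50 for inhibition of binding versus vehicle.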

Experiment [1] has as its system MCP-1 induced chemotaxis of THP-1 cells. The experiment is described as follows: MCP-1 Induced Chemotaxis in THP-1 Cells. To be noted: Homo sapiens, MCP-1 0.01 μg/mL, 3 hours at 37° C., read-out: Inhibition of MCP-1 Induced Chemotaxis IC50. In kind it is cell-based. The method, then: MCP-1 induced chemotaxis was run in a 24-well chemotaxis chamber. MCP-1 (0.01 μg/mL) was added to the lower chamber and 100 μL of THP-1 cells (1×10^7 cell/mL) was added to the top chamber. Varying concentrations of test compound were added to the top and bottom chambers. Cells were allowed to chemotax for 3 hours at 37° C. and 5% CO2. An aliquot of the cells that had migrated to the bottom chamber was taken and counted then compared to vehicle.
Table 3 lists IC50 values for inhibition of MCP-1 induced chemotaxis.

Experiment [2] concerns MCP-1 induced calcium ion influx in THP-1 cells. The experiment is described as follows: MCP-1 Induced Calcium Mobilization in THP-1 Cells. In kind it is cell-based. To be noted: Homo sapiens, THP-1, THP-1 cells, 0.2 μM MCP-1, FLIPR; read-out: Inhibition of MCP-1 Induced Calcium Ion Influx IC50. Summed up: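 Fluo-3-loaded (5 μM, 45 min) THP-1 cells preincubated 15 min with compound. Calcium change after 0.2 μM MCP-1 addition read by FLIPR relative to vehicle; IC50 values derived.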
Background: Calcium flux is commonly read through the fluorescence of an indicator in the cells.

As usually defined, the IC50 is the concentration that gives 50% inhibition.

On to `O=C(Nc1ccc(Cl)c(Cl)c1)N1CCC(C(O)CN2CCC(c3c[nH]c4ccccc34)CC2)CC1` (stereo not drawn) [Compound 4, 4-{1-hydroxy-2-[4-(1H-indol-3-yl)-piperidin-1-yl]-ethyl}-piperidine-1-carboxylic acid (3,4-dichloro-phenyl)-amide], for which the IC50 stood at 30 nM on CCR2, 4 nM in experiment [1] and 20 nM in experiment [2].

With `O=C(Nc1cc(F)cc(F)c1)N1CCC(C(O)CN2CCC(c3c[nH]c4ccccc34)CC2)CC1` (stereo not drawn) [Compound 5, 4-{1-hydroxy-2-[4-(1H-indol-3-yl)-piperidin-1-yl]-ethyl}-piperidine-1-carboxylic acid (3,5-difluoro-phenyl)-amide], the values for the half-inhibitory concentration (IC50) (at CCR2; in experiment [1]; in experiment [2]) were 160 nM, 120 nM and 80 nM, respectively.

Take `O=C(/C=C/c1ccc(Cl)c(Cl)c1)N1CCC(C(O)CN2CCC(c3c[nH]c4ccccc34)CC2)CC1` (stereo not drawn) [Compound 6]: the IC50 at CCR2 is 40 nM; in experiment [1], 20 nM; in experiment [2] it was 7 nM.

Consider `O=C(/C=C/c1cc(F)cc(F)c1)N1CCC(C(O)CN2CCC(c3c[nH]c4ccccc34)CC2)CC1` (stereo not drawn) [Compound 7], for which the IC50 at CCR2 amounted to 30 nM; in experiment [1] it was 30 nM; in experiment [2], 7 nM.

In the case of `OC(CN1CCC(c2c[nH]c3ccccc23)CC1)C1CCN(C(=S)Nc2cccc(Br)c2)CC1` (stereo not drawn) [Compound 9, 4-{1-hydroxy-2-[4-(1H-indol-3-yl)-piperidin-1-yl]-ethyl}-piperidine-1-carbothioic acid (3-bromo-phenyl)-amide], the IC50 stood at 50 nM at CCR2, 20 nM in experiment [1] and 120 nM in experiment [2].

Take `N=C(NC(=O)c1cc(F)cc(F)c1)N1CCC(C(O)CN2CCC(c3c[nH]c4ccccc34)CC2)CC1` (stereo not drawn) [Compound 10, 3,5-difluoro-N-[(4-{1-hydroxy-2-[4-(1H-indol-3-yl)-piperidin-1-yl]-ethyl}-piperidin-1-yl)-imino-methyl]-benzamide]: the IC50 came out at 150 nM on CCR2, 270 nM in experiment [1] and 400 nM in experiment [2].

`Cc1cccc(/C=C/C(=O)N2CCC(C(O)CN3CCC(c4c[nH]c5ccccc45)CC3)CC2)c1` (stereo not drawn) [Compound 11]: the results for the IC50 (at CCR2; in experiment [1]; in experiment [2]) were 10 nM, 190 nM and 350 nM, respectively.

For `COc1ccc(C2CCN(CC(O)C3CCN(C(=O)/C=C/c4cc(F)cc(F)c4)CC3)CC2)cc1` (stereo not drawn) [Compound 12], the figures for the IC50 (on CCR2; in experiment [1]; in experiment [2]) were 20 nM, 7 nM and 650 nM, respectively.

For `COc1ccc(C2CCN(CC(O)C3CCN(C(=O)/C=C/c4cc(F)c(F)c(F)c4)CC3)CC2)cc1` (stereo not drawn) [Compound 13], the IC50 on CCR2 was found to be 10 nM; in experiment [1], 60 nM; in experiment [2] it was 240 nM.

For the compound `COc1ccc(C2CCN(CC(O)C3CCN(C(=O)/C=C/c4ccc(Cl)c(Cl)c4)CC3)CC2)cc1` (stereo not drawn) [Compound 14], the IC50 worked out at 140 nM on CCR2, 150 nM in experiment [1] and 3 nM in experiment [2].

For the compound `COc1ccc(C2CCN(CC(O)C3CCN(C(=O)Nc4ccc(Cl)c(Cl)c4)CC3)CC2)cc1` (stereo not drawn) [Compound 15, 4-{1-hydroxy-2-[4-(4-methoxy-phenyl)-piperidin-1-yl]-ethyl}-piperidine-1-carboxylic acid (3,4-dichloro-phenyl)-amide], the results for the 50% inhibitory concentration (IC50) (on CCR2; in experiment [1]; in experiment [2]) were 30 nM, 20 nM and 110 nM, respectively.

Take `COc1ccc(C2CCN(CC(O)C3CCN(C(=S)Nc4cccc(Br)c4)CC3)CC2)cc1` (stereo not drawn) [Compound 16, 4-{1-hydroxy-2-[4-(4-methoxy-phenyl)-piperidin-1-yl]-ethyl}-piperidine-1-carbothioic acid (3-bromo-phenyl)-amide]: the concentration for half-maximal inhibition (IC50) was 130 nM on CCR2, 300 nM in experiment [1] and 980 nM in experiment [2].
